# Measured values reported in patent US20020155540A1, “Method to reduce transcriptional interference between tandem genes” (priority 2001, published 2002).
# Tested on: ecdysone receptor (EcR) based, chemically inducible gene expression system
# Assay: Ecdysone receptor-based gene induction: upstream LUC activation and downstream RLUC expression in protoplasts
# Type: cell-based, tobacco
# Method: Protoplasts were prepared from actively growing tobacco BY-2 suspension cells (Japan Tobacco, Japan) and cultured essentially as described in Kikkawa et al. (9). One ml of protoplasts (5×10^5 to 1×10^6 cells) was mixed with plasmid DNA and electroporated at 0.56 K Volts for 80 μ seconds using an electroporation system with petripulser electrode (BTX). Equimolar plasmid DNA was added to transfections and the amount of DNA added varied from 23 to 30 μg depending on the plasmid size. To standardize the luciferase enzyme assays, 2 μg of the RLUC plasmid DNA were also added to each transfection as an internal control. Following the electroporation, protoplasts were diluted with 1 ml of 2×protoplast culture medium, aliquoted as two 1 ml cultures and incubated at 27° C. for 16-17 h. Each plasmid construct was tested in 5 to 7 independent transfection experiments.
# Protoplast cultures were lysed by adding 250 μl of 5× passive lysis buffer (Promega) and shaking at room temperature for 10 minutes. […] The assay was performed with a luminometer plate reader (Dynex). The luciferase enzyme activities were measured and expressed as ratios of luciferase to Renilla luciferase activities in relative light units.
# Induction of the Luc gene expression cassette was controlled by the addition of EcR ligand methoxyfenozide.
# It contains a constitutively expressed chimeric GVE receptor gene (CsVMV promoter—sequences coding for GAL4 DNA binding domain, VP16 activation domain, and EcR ligand binding domain—NOS terminator) and an inducible promoter (five copies of GAL4 response element+minimal 35S promoter) to drive LUC gene expression (FIG. 1D). When the ligand methoxyfenozide (4) is applied to protoplasts, it binds to and activates the chimeric receptor. The activated receptor then induces LUC gene expression. This system was used to activate the upstream LUC gene, and the influence of LUC activation on the downstream constitutive RLUC gene expression was then measured.
compound,measurement,setting,value
COc1cccc(C(=O)NN(C(=O)c2cc(C)cc(C)c2)C(C)(C)C)c1C [methoxyfenozide],Luc Induced,10 μM methoxyfenozide,"25,428 RLU"
same,RLuc Induced,10 μM methoxyfenozide,8832 RLU
same,"reduction of downstream, constitutively expressed RLuc expression",after activation of upstream Luc gene with ligand,71%
